The values below come from PubChem BioAssay (NCI).

Assay in all cases: DTP human tumour cell line panel, 48 h
In assay [1] the test system is IGROV1 ovarian.
Assay [2] relates to HT29 colon.
The subject of assay [3] is TK-10 renal.
Assay [4] deals with NCI-H226 lung.
In assay [5] the test system is SK-MEL-2 melanoma.
The test system of assay [6] is MOLT-4 leukemia.
Assay [7] concerns NCI-H460 lung.
The subject of assay [8] is RXF 393 renal.
The test system of assay [9] is BT-549 breast.
In assay [10] the test system is MDA-MB-435.

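Tested at 5 concentrations; 48 h exposure; 96-well plates; endpoints linearly interpolated, else capped at highest concentration. Abbreviation: GI50, concentration required for 50% inhibition of growth. TGI: concentration producing complete growth inhibition.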 A value given as a limit tells only on which side of the number the result lay.

Turning to `COC(=O)CCC(=O)C(C#N)c1ccc(Cl)cc1Cl` (configuration not stated), the TGI in [1], in [2], in assay [3], in assay [4], in assay [5] and in [6] was more than 100 µM each time.

In the case of `NC(CCCNCc1ccccc1O)C(=O)O` (configuration not stated), the TGI in assay [1], in [2], in assay [3], in [4], in [5] and in [7] was more than 100 µM in each case. In addition, the concentration for total growth inhibition (TGI) in [6] is more than 100 µM.

For the compound `[O-][N+]1=C(c2ccccc2)COc2ccccc21`, the TGI in assay [1], in assay [2], in [3], in [4], in [5] and in assay [7] was more than 100 µM throughout. Also, the TGI in assay [8] and in assay [6] was more than 100 µM throughout.

Take `C/C(CN1C(=O)c2ccccc2C1=O)=N\NS(C)(=O)=O`: the TGI in [1], in assay [2], in [3], in assay [4], in assay [5] and in assay [7] was more than 100 µM each time. Further, the TGI in assay [8] and in assay [6] was more than 100 µM each time.

With `Clc1ccc(CCn2cncn2)c(Cl)c1`, the TGI in assay [1], in assay [2], in [3], in assay [4], in assay [7] and in assay [6] was more than 100 µM each time.

Regarding `C#CCOc1c(OC)cc(C(=O)/C(C)=C/c2cccc(N=[N+]=[N-])c2)cc1OC`, the GI50 was 0.766 µM in [1]; 0.0576 µM in assay [2]; 0.325 µM in assay [3]; 15 µM in assay [4]; 0.725 µM in assay [5]; 0.131 µM in [9]. In addition, the GI50 in assay [7] is 0.329 µM; in [8], 0.25 µM; in assay [6], 0.362 µM. Besides, the TGI in assay [1] is more than 100 µM; in assay [2], 73.4 µM; in assay [3] it was 38.9 µM; in [4] it was more than 100 µM; in [5], more than 100 µM; in [9], 7.1 µM. The figures for the TGI in assay [7], in [8] and in assay [6] were 20.2 µM, more than 100 µM and more than 100 µM, respectively.

Regarding `C/C(CC(=O)Nc1ccc([N+](=O)[O-])cc1)=N/N=C(N)N`, the concentration for total growth inhibition (TGI) in assay [1], in assay [2], in assay [3], in assay [4], in assay [5] and in assay [7] was more than 100 µM throughout. The TGI in [8] and in [6] was more than 100 µM each time.

`COc1ccc(OC)c(/C=C/c2cnnc3ccccc23)c1`: the TGI in assay [1] is more than 10 µM; in [10] it was 2.01 µM; in assay [2], more than 10 µM; in [3] it was more than 10 µM; in [4], more than 10 µM; in assay [5] it was 6.43 µM. Besides, the TGI in assay [7], in assay [8] and in assay [6] was more than 10 µM each time.

Take `N#Cc1ccccc1/C=N/O`: the TGI in assay [1], in assay [2], in assay [3], in assay [4], in assay [7] and in assay [8] was more than 100 µM throughout. In assay [6], this compound returned a TGI of more than 100 µM.

For `Cc1cc2c(=O)cc(-c3ccc(C(=O)O)cc3)oc2c(C(=O)O)c1C`, the concentration for total growth inhibition (TGI) in assay [1], in assay [2], in assay [3], in assay [4], in assay [5] and in [7] was more than 100 µM each time. The TGI in assay [6] is more than 100 µM.

For `O=C(Nc1ccc(Cl)cc1Cl)/C(Cl)=C1/Sc2ccccc2NC1=O`, the TGI in assay [1] is more than 100 µM; in assay [3] it was more than 100 µM; in [4], 79.2 µM; in assay [5] it was 48.3 µM; in assay [7], more than 100 µM; in [8] it was 75.8 µM. The compound further gave a TGI in assay [6] of 87 µM.

Consider `N=c1c2c(=O)n3c(nc2nc2sc4ccc(Cl)cc4n12)-c1ccccc1Sc1ccccc1-3`, for which the GI50 in assay [1] was 3.81 µM; in assay [10] it was 2.67 µM; in assay [2] it was 3.8 µM; in [3], 4.3 µM; in assay [4] it was 2.92 µM; in assay [5], 2.07 µM. The GI50 was 2.07 µM in [7], 3.23 µM in assay [8] and 1.77 µM in assay [6]. The TGI was found to be 18.3 µM in [1]; 13.1 µM in [10]; 18 µM in [2]; 47.1 µM in assay [3]; 21.5 µM in [4]; 5.99 µM in [5]. For the same compound, the results for the concentration for total growth inhibition (TGI) in [7], in assay [8] and in assay [6] were 6.98 µM, 16.2 µM and 9.64 µM, respectively.

Turning to `O=C(Cc1nc2ccccc2s1)NC12CC3CC(CC(C3)C1)C2`, the TGI in assay [2], in [3], in [4], in assay [5], in assay [7] and in assay [6] was more than 100 µM each time.

Regarding `COc1ccc(OC)c2c3c(ncc12)-c1cc2c(cc1C3)OCO2`, the GI50 was 4.24 µM in assay [1]; more than 100 µM in assay [10]; more than 100 µM in assay [3]; more than 100 µM in assay [5]; 5.6 µM in assay [7]; more than 100 µM in [8]. In addition, the total growth inhibition concentration (TGI) in [1], in assay [10], in [3], in [5], in assay [7] and in assay [8] was more than 100 µM throughout.
